Results from ChEMBL document CHEMBL4610057, “Benzopyrimidodiazepinone inhibitors of TNK2” (Bioorg Med Chem Lett, 2020).

Assays:
[1] = mouse, microsomes
in vivo [2] = settings: CD1, mouse, po, 10 mg/kg
[3] = Metabolic stability in mouse liver microsomes assessed as parent compound remaining measured after 60 mins; format: ADME, Microsome
in vitro [4] = settings: mouse, hepatocytes
in vivo [5] = settings: CD1, mouse, po, 10 mg/kg; remark: listed apart in the source
in vivo [6] = settings: CD1, mouse, iv, 3 mg/kg
in vivo [7] = settings: CD1, mouse, iv, 3 mg/kg; remark: listed apart in the source
in vitro [8] = settings: mouse, liver microsomes

Row | t1/2 [1] [h] | AUC(0-inf) (in vivo [2]) [ng·h/mL] | Stability ([3]; microsomes, 1 h) [%] | half-life (in vitro [4]) [h] | bioavailability (in vivo [5]) [%] | half-life (in vivo [6]) [h] | clearance (in vivo [7]) [mL/min/kg] | half-life (in vitro [8]) [h] | remaining at 1 h ([3]; liver microsomes, read-out: Stability) [%] | SMILES
1 | 0.467 | 56 | 2 | 5.78 | 5 | 0.7 | 150 | – | – | COc1cc(N2CCN(C)CC2)ccc1Nc1ncc2c(n1)N(C)c1ccccc1C(=O)N2
2 | – | 2000 | – | > 8.33 | 46 | 4.4 | 25 | 0.367 | 40 | COc1cc(N2CCN(C)CC2)ccc1Nc1ncc2c(n1)N(C)c1ccccc1C(=O)N2C

Row | SMILES | t1/2 [1] [h] | AUC(0-inf) (in vivo [2]) [ng·h/mL] | Stability ([3]; microsomes, 1 h) [%] | half-life (in vitro [4]) [h] | bioavailability (in vivo [5]) [%] | half-life (in vivo [6]) [h] | clearance (in vivo [7]) [mL/min/kg] | half-life (in vitro [8]) [h] | remaining at 1 h ([3]; liver microsomes, read-out: Stability) [%]
3 | COc1cc2c(cc1Nc1ccc(Nc3ncc4c(n3)N(C)c3ccccc3C(=O)N4)cc1)CCN(C)C2 | – | 125 | – | – | 7 | 10 | 120 | – | –
